# Assay results: patent US10568874B2, “Indane-amines as PD-L1 antagonists” (CHEMOCENTRYX, INC., priority 2018, dated 2020)
# Biological target: human PD-L1 (Homo sapiens (Human), UniProt Q9NZQ7)
# Assay: Enzyme-Linked Immunosorbent Assay (ELISA), PD-1/PD-L1 binding
# Settings: plate-coated human PD-L1, biotinylated human PD-1
# Experimental: Plates were coated with 1 μg/mL of human PD-L1 (obtained from R&D) in PBS overnight at 4° C. The wells were then blocked with 2% BSA in PBS (W/V) with 0.05% TWEEN-20 for 1 hour at 37° C. The plates were washed 3 times with PBS/0.05% TWEEN-20 and the samples were diluted to 1:5 in dilution medium in the ELISA plates. Human PD-1 and biotin 0.3 μg/mL (ACRO Biosystems) were added and incubated for 1 hour at 37° C. then washed 3 times with PBS/0.05% TWEEN-20. A second block was added with 2% SA in PBS (W/V)/0.05% TWEEN-20 for 10 min at 37° C. and was washed 3 times with PBS/0.05% TWEEN-20. Streptavidin-HRP was added for 1 hour at 37° C. then washed 3 times with PBS/0.05% TWEEN-20. TMB substrate was added and reacted for 20 min at 37° C. A stop solution (2 N aqueous H2SO4) was added. The absorbance was read at 450 nm using a micro-plate spectrophotometer.
# Chain of human PD-L1 (Q9NZQ7 19-239): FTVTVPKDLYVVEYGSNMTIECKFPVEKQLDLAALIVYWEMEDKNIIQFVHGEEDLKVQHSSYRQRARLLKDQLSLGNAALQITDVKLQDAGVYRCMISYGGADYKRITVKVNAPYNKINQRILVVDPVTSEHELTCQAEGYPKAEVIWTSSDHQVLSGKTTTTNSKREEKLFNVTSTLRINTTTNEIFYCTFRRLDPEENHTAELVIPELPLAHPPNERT
row,IC50 [nM],SMILES
1,5 to 500,CCOc1cc(NC2CCc3c(-c4cccc(OCCCN5CCC(F)CC5)c4C)cccc32)c(Cl)cc1CN[C@@H](CO)C(=O)O (some centres unmarked)
2,500 to 20000,CCOc1cc(NC2CCc3c(-c4cccc(OCCCN5CCC(C)(F)CC5)c4C)cccc32)c(Cl)cc1CN[C@H]1CCC(=O)NC1 (some centres unmarked)
3,500 to 20000,CCOc1cc(NC2CCc3c(-c4cccc(OCCCN5CCC(C)(F)CC5)c4Cl)cccc32)c(Cl)cc1CN1CCC(O)CC1 (centres unmarked)
4,500 to 20000,CCOc1cc(NC2CCc3c(-c4cccc(OCCCN5CCC(C)(F)CC5)c4Cl)cccc32)c(Cl)cc1CN[C@H]1CCC(=O)NC1 (some centres unmarked)
5,5 to 500,CCOc1cc(NC2CCc3c(-c4cccc(OCCCN5CCC(F)CC5)c4C)cccc32)c(Cl)cc1CNC[C@@H]1CCC(=O)N1 (some centres unmarked)
6,500 to 20000,CCOc1cc(NC2CCc3c(-c4cccc(OCCCN5CCC(F)CC5)c4C)cccc32)c(Cl)cc1CN[C@H]1CCC(=O)NC1 (some centres unmarked)
7,5 to 500,CCOc1cc(NC2CCc3c(-c4cccc(OCCCN5CCC(C)(F)CC5)c4C)cccc32)c(Cl)cc1CNC[C@@H]1CCC(=O)N1 (some centres unmarked)
8,5 to 500,CCOc1cc(NC2CCc3c(-c4ccccc4F)cccc32)c(Cl)cc1CN[C@@H](CO)C(=O)O (stereo partly drawn) [(2S)-2-[[5-chloro-2-ethoxy-4-[[4-(2-fluorophenyl)indan-1-yl]amino]phenyl]methylamino]-3-hydroxy-propanoic Acid]
